Measured values published in patent publication US20230233569A1 (Revolution Medicines, Inc., priority 2020, published 2023).
Read-outs that look alike come from different tables or passages of the source.

How the values were obtained:
Assay in all cases: Ras-Raf disruption / FRET / MOA assay (BRAF RBD)
Format in all cases: biochemical
[1] = target: KRAS G12C (Homo sapiens, UniProt P01116+P62937, G12C); settings: with Cyclophilin A
Summary of the method: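 TR-FRET read-out after 1.5 h with anti-His Eu-W1024 (10 nM) and anti-GST APC (50 nM), following 3 h at 25 °C of compound (top 30 μM, 3-fold, 10 points) with 25 μM Cyclophilin A, 12.5 nM GMPPNP-loaded K-Ras G12C and 50 nM BRAF RBD; IC50 reported.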

[2] = target: NRAS Q61K (Homo sapiens, UniProt P01111+P62937, Q61K)
Summary of the method: (§1)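 Compound-induced Ras–Cyclophilin A ternary complex disrupting BRAF RBD binding, read as IC50 from reduced TR-FRET ratio relative to DMSO. Final: Ras-GMPPNP 12.5 nM, BRAF RBD 50 nM, Cyclophilin A 25 μM, top compound 30 μM (3-fold, 10 points); 3 h at 25 °C, then 1.5 h with detection antibodies.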

[3] = target: KRAS G12D (Homo sapiens, UniProt P01116+P62937, G12D); settings: with Cyclophilin A
Summary of the method: as §1

[4] = target: KRAS G12S (Homo sapiens, UniProt P01116+P62937, G12S); settings: with Cyclophilin A
Summary of the method: as §1

[5] = target: KRAS WT (Homo sapiens, UniProt P01116+P62937); settings: with Cyclophilin A
Summary of the method: as §1

[6] = target: KRAS Q61H (Homo sapiens, UniProt P01116+P62937, Q61H)
Summary of the method: as §1

[7] = target: KRAS G13D (Homo sapiens, UniProt P01116+P62937, G13D); settings: with Cyclophilin A
Summary of the method: as §1

[8] = target: NRAS Q61R (Homo sapiens, UniProt P01111+P62937, Q61R)
Summary of the method: as §1

[9] = target: NRAS WT (Homo sapiens, UniProt P01111+P62937)
Summary of the method: as §1

[10] = target: KRAS G13C (Homo sapiens, UniProt P01116+P62937, G13C); settings: with Cyclophilin A
Summary of the method: as §1

[11] = target: NRAS G12C (Homo sapiens, UniProt P01111+P62937, G12C)
Summary of the method: as §1

[12] = target: KRAS G12V (Homo sapiens, UniProt P01116+P62937, G12V); settings: with Cyclophilin A
Summary of the method: as §1

[13] = KRAS G12C FRET data IC50, Ras-Raf disruption
[14] = KRAS G12D FRET data IC50, Ras-Raf disruption
[15] = KRAS G12S FRET data IC50, Ras-Raf disruption
[16] = KRAS WT FRET data IC50, Ras-Raf disruption
[17] = KRAS G13D FRET data IC50, Ras-Raf disruption
[18] = KRAS G13C FRET data IC50, Ras-Raf disruption
[19] = NRAS G12C FRET data IC50, NRAS G12C
[20] = KRAS G12V FRET data IC50, Ras-Raf disruption
[21] = Ras-Raf disruption, read-out: KRAS G12C FRET data IC50
[22] = NRAS Q61K, read-out: NRAS Q61K FRET data IC50
[23] = Ras-Raf disruption, read-out: KRAS G12D FRET data IC50
[24] = Ras-Raf disruption, read-out: KRAS G12S FRET data IC50
[25] = Ras-Raf disruption, read-out: KRAS WT FRET data IC50
[26] = KRAS Q61H, read-out: KRAS Q61H FRET data IC50
[27] = Ras-Raf disruption, read-out: KRAS G13D FRET data IC50
[28] = NRAS Q61R, read-out: NRAS Q61R FRET data IC50
[29] = NRAS WT, read-out: NRAS WT FRET data IC50
[30] = Ras-Raf disruption, read-out: KRAS G13C FRET data IC50
[31] = NRAS G12C, read-out: NRAS G12C FRET data IC50
[32] = Ras-Raf disruption, read-out: KRAS G12V FRET data IC50

Chain of NRAS Q61R (P01111 whole entry Q61R): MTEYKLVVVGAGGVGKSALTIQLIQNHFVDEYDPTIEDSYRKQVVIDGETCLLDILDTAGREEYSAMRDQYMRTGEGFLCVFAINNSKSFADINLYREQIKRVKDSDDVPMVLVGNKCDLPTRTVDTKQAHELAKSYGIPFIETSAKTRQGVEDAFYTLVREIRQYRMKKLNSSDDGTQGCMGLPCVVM
Chain of NRAS Q61R (P62937 whole entry): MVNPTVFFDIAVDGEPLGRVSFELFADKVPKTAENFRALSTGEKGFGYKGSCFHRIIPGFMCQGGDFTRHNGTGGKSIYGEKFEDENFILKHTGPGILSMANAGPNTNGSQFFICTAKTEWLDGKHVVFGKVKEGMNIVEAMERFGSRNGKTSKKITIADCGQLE
Chain of KRAS G12C (P01116 1-169 isoform P01116-2 G12C limits assumed): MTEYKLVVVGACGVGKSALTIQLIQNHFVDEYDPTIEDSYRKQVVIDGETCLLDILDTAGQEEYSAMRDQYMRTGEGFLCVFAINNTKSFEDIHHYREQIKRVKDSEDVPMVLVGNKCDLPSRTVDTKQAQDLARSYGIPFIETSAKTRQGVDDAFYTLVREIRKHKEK
Chain of KRAS G12C (P62937 whole entry): as the sequence (P62937 whole entry) above
Chain of NRAS G12C (P01111 whole entry G12C): as the sequence (P01111 whole entry Q61R) above, with G12C, R61Q counted along it
Chain of NRAS G12C (P62937 whole entry): as the sequence (P62937 whole entry) above
Chain of KRAS G13D (P01116 1-169 isoform P01116-2 G13D limits assumed): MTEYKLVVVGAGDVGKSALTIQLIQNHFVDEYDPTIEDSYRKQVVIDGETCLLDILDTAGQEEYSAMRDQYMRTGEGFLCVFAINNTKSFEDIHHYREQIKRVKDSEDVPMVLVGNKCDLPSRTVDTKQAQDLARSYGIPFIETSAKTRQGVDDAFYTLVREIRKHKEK
Chain of KRAS G13D (P62937 whole entry): as the sequence (P62937 whole entry) above
Chain of KRAS G12D (P01116 1-169 isoform P01116-2 G12D limits assumed): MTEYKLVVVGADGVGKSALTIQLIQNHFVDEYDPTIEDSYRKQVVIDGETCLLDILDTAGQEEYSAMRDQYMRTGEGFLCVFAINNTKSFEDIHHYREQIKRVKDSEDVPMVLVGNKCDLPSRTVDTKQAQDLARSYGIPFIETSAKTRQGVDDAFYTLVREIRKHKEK
Chain of KRAS G12D (P62937 whole entry): as the sequence (P62937 whole entry) above
Chain of KRAS Q61H (P01116 1-169 isoform P01116-2 Q61H limits assumed): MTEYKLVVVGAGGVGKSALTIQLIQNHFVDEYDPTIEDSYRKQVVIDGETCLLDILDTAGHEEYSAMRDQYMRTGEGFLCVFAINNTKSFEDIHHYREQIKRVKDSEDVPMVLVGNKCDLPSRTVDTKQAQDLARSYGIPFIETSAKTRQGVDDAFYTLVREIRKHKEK
Chain of KRAS Q61H (P62937 whole entry): as the sequence (P62937 whole entry) above
Chain of KRAS G12S (P01116 1-169 isoform P01116-2 G12S limits assumed): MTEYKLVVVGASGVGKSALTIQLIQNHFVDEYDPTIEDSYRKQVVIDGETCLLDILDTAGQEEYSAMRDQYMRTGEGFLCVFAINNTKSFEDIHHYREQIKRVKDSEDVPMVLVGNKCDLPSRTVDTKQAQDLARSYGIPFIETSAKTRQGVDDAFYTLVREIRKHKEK
Chain of KRAS G12S (P62937 whole entry): as the sequence (P62937 whole entry) above
Chain of KRAS G13C (P01116 1-169 isoform P01116-2 G13C limits assumed): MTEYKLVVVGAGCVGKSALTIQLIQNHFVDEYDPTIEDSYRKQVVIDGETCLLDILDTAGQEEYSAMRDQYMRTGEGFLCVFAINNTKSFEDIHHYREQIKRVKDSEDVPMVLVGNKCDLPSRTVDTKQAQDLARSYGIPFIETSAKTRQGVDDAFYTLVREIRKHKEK
Chain of KRAS G13C (P62937 whole entry): as the sequence (P62937 whole entry) above
Chain of NRAS WT (P01111 whole entry): as the sequence (P01111 whole entry Q61R) above, with R61Q counted along it
Chain of NRAS WT (P62937 whole entry): as the sequence (P62937 whole entry) above
Chain of KRAS WT (P01116 1-169 isoform P01116-2 limits assumed): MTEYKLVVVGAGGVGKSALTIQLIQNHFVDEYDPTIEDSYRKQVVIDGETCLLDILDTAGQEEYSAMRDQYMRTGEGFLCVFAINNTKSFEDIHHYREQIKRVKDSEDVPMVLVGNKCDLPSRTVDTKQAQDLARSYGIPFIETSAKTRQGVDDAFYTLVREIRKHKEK
Chain of KRAS WT (P62937 whole entry): as the sequence (P62937 whole entry) above
Chain of KRAS G12V (P01116 1-169 isoform P01116-2 G12V limits assumed): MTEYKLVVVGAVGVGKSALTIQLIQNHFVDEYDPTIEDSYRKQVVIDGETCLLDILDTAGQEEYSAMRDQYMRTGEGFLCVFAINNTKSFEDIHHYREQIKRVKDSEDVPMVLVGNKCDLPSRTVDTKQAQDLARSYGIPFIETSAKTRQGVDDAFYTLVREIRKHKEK
Chain of KRAS G12V (P62937 whole entry): as the sequence (P62937 whole entry) above
Chain of NRAS Q61K (P01111 whole entry Q61K): as the sequence (P01111 whole entry Q61R) above, with R61K counted along it
Chain of NRAS Q61K (P62937 whole entry): as the sequence (P62937 whole entry) above

SMILES	IC50 [1, 13] [µM]	IC50 [2] [µM]	IC50 [3, 14] [µM]	IC50 [4, 15] [µM]	IC50 [5, 16] [µM]	IC50 [6] [µM]	IC50 [7, 17] [µM]	IC50 [8] [µM]	IC50 [9] [µM]	IC50 [10, 18] [µM]	IC50 [11, 19] [µM]	IC50 [12, 20] [µM]	IC50 [2, 22] [µM]	IC50 [3, 23] [µM]	IC50 [4, 24] [µM]	IC50 [5, 25] [µM]	IC50 [6, 26] [µM]	IC50 [7, 27] [µM]	IC50 [8, 28] [µM]	IC50 [9, 29] [µM]	further results
CCn1c(-c2cccnc2[C@H](C)OC)c2c3cc(ccc31)-c1cc(O)cc(c1)C[C@H](NC(=O)[C@H](C1CCCC1)N(C)C(=O)CN(C)C(=O)[C@@H]1N[C@@H]1C1(OC)CC1)C(=O)N1CCC[C@H](N1)C(=O)OCC(C)(C)C2 (single isomer, unassigned) [Example 323]	0.01 to 0.1	0.1 to 1	0.1 to 1	0.01 to 0.1	0.01 to 0.1	0.01 to 0.1	0.1 to 1	0.1 to 1	0.01 to 0.1	0.01 to 0.1	0.01 to 0.1	0.01 to 0.1	–	–	–	–	–	–	–	–	–
CCn1c(-c2cccnc2[C@H](C)OC)c2c3cc(ccc31)-c1cc(O)cc(c1)C[C@H](NC(=O)[C@H](C(C)C)N(C)C(=O)N1CC[C@@H](N(C)C(=O)[C@@H]3CN3)C1)C(=O)N1CCC[C@H](N1)C(=O)OCC(C)(C)C2 (atropisomer, axis not shown) [Example 253]	–	–	–	–	–	–	–	–	–	–	–	–	0.1 to 1	0.1 to 1	0.1 to 1	0.01 to 0.1	0.01 to 0.1	0.1 to 1	0.1 to 1	0.01 to 0.1	IC50 [1, 21]: 0.01 to 0.1 µM; IC50 [10, 30]: 0.01 to 0.1 µM; IC50 [11, 31]: 0.01 to 0.1 µM; IC50 [12, 32]: 0.1 to 1 µM
CCn1c(-c2cccnc2[C@H](C)OC)c2c3cc(ccc31)-c1csc(n1)C[C@H](NC(=O)[C@H](C(C)C)N(C)C(=O)N1CC(N(C)C(=O)[C@H]3CN3)C1)C(=O)N1CCC[C@H](N1)C(=O)OCC(C)(C)C2 [Example 218]	–	–	–	–	–	–	–	–	–	–	–	–	0.01 to 0.1	1 to 10	0.1 to 1	0.1 to 1	0.01 to 0.1	0.1 to 1	0.1 to 1	0.1 to 1	IC50 [10, 30]: 0.1 to 1 µM; IC50 [11, 31]: 0.01 to 0.1 µM; IC50 [12, 32]: 0.1 to 1 µM
CCn1c(-c2cccnc2[C@H](C)OC)c2c3cc(ccc31)-c1cc(O)cc(c1)C[C@H](NC(=O)[C@H](C1CCCC1)N(C)C(=O)[C@H](C)N(C)C(=O)[C@@H]1N[C@@H]1C1CC1)C(=O)N1CCC[C@H](N1)C(=O)OCC(C)(C)C2 [Example 328]	0.01 to 0.1	0.1 to 1	0.1 to 1	0.01 to 0.1	0.01 to 0.1	0.01 to 0.1	0.1 to 1	0.1 to 1	0.01 to 0.1	0.01 to 0.1	0.01 to 0.1	0.01 to 0.1	–	–	–	–	–	–	–	–	–
CCn1c(-c2cccnc2[C@H](C)OC)c2c3cc(ccc31)-c1cc(O)cc(c1)C[C@H](NC(=O)[C@H](C(C)C)N1CC[C@H](NC(=O)[C@H]3CN3)C1=O)C(=O)N1CCC[C@H](N1)C(=O)OCC(C)(C)C2 [Example 213]	0.01 to 0.1	0.1 to 1	1 to 10	0.1 to 1	0.01 to 0.1	0.01 to 0.1	0.1 to 1	0.1 to 1	0.01 to 0.1	0.01 to 0.1	0.01 to 0.1	0.1 to 1	–	–	–	–	–	–	–	–	–
CCn1c(-c2cccnc2[C@H](C)OC)c2c3cc(ccc31)-c1csc(n1)C[C@H](NC(=O)[C@H](C(C)C)N(C)C(=O)N1CCCN(C(=O)[C@H]3CN3)CC1)C(=O)N1CCC[C@H](N1)C(=O)OCC(C)(C)C2 (atropisomer, axis not shown) [Example 222]	–	–	–	–	–	–	–	–	–	–	–	–	0.01 to 0.1	0.1 to 1	0.01 to 0.1	0.01 to 0.1	0.01 to 0.1	0.1 to 1	0.01 to 0.1	0.01 to 0.1	IC50 [1, 21]: 0.01 to 0.1 µM; IC50 [10, 30]: 0.1 to 1 µM; IC50 [11, 31]: 0.01 to 0.1 µM; IC50 [12, 32]: 0.1 to 1 µM
